Measurements: patent US20170143701A1, “CARBOHYDRATE METABOLISM-AMELIORATING AGENT” (SUNTORY HOLDINGS LIMITED, priority 2014, published 2017)

How the values were obtained:
C57/BL6J mice = experiment: In vivo plasma GLP-1 level-increasing action: plasma active GLP-1 level (ELISA) after oral administration; conditions: 10 mg/kg oral; for Significant difference (p < 0.05) vs control group, plasma active GLP-1 level: 30 minutes, Student's t-test; for Plasma active GLP-1 level (relative value to control group as 100), average value: blood 30 minutes after, 0.5% CMC-Na group = 100
Summary of the method: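 Male C57BL/6J mice, habituated 1 week, deprived of food 5.5 h and water 2 h, then dosed orally with compound at 10 mg/kg in 0.5% CMC-Na. Vena cava blood taken 30 min later under anaesthesia, with heparin and sitagliptin added; plasma active GLP-1 by ELISA, relative to vehicle group set at 100.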

NCI-H716 cells = experiment: In vitro GLP-1 secretion-accelerating action: amount of active GLP-1 secreted (ELISA); type: cell-based; conditions: 1 hour; for Significant difference (p < 0.05) vs control group, amount of active GLP-1 secreted: 10 mM, Student's t-test; for Amount of active GLP-1 secreted (relative value to control group as 100), average value: cyclic dipeptide 10 mM with 10 μM Sitagliptin phosphate, group with no cyclic dipeptide = 100
Procedure: Among the cyclic dipeptides, 92 highly water-soluble cyclic dipeptides were used in the following experiment. In each well of a Poly-L-Lysine 96-well plate, NCI-H716 cells suspended in 100 μL of a DMEM (with 10% FBS, 2 mM glutamine, and 1% antibiotics added in advance) were seeded at 0.5×10^5 cells/well, and cultured in a CO2 incubator (manufactured by ESPEC CORP.) for 48 hours. After washing with PBS(+), 100 μL of a PBS(+) solution with each cyclic dipeptide at a final concentration of 10 mM and 10 μM of Sitagliptin phosphate added therein was added to the cells. After 1 hour, the resultant solution was recovered, and the amount of active GLP-1 in the solution was measured by using the ELISA kit. In the analysis, the amount of active GLP-1 for a group with no cyclic dipeptide added was defined as 100, and relative values thereto were used.

| SMILES | Significant difference (p < 0.05) vs control group, amount of active GLP-1 secreted (NCI-H716 cells; Table 4, Experiment 4) | Amount of active GLP-1 secreted (relative value to control group as 100), average value (NCI-H716 cells; Table 4, Experiment 4) | Significant difference (p < 0.05) vs control group, plasma active GLP-1 level (C57/BL6J mice; Table 7, Experiment 2) | Plasma active GLP-1 level (relative value to control group as 100), average value (C57/BL6J mice; Table 7, Experiment 2) | further results |
| --- | --- | --- | --- | --- | --- |
| O=C1N[C@@H](Cc2cnc[nH]2)C(=O)N2CCC[C@@H]12 [compound 37, cyclo-histidyl-proline] |  |  |  |  | Significant difference (p < 0.05) vs control group, plasma active GLP-1 level (C57/BL6J mice; Table 6, Experiment 1): Yes; Plasma active GLP-1 level (relative value to control group as 100), average value (C57/BL6J mice; Table 6, Experiment 1): 62; Significant difference (p < 0.05) vs control group, amount of active GLP-1 secreted (NCI-H716 cells; Table 1, Experiment 1): No; Amount of active GLP-1 secreted (relative value to control group as 100), average value (NCI-H716 cells; Table 1, Experiment 1): 231 |
| NC(=O)CCC1NC(=O)C(CC(N)=O)NC1=O (centres unmarked) [compound 174, Cyclo(Gln-Asn)] | Yes | 305 |  |  | Significant difference (p < 0.05) vs control group, plasma active GLP-1 level (C57/BL6J mice; Table 15, Experiment 10): No; Plasma active GLP-1 level (relative value to control group as 100), average value (C57/BL6J mice; Table 15, Experiment 10): 168 |
| NC(=O)CC1NC(=O)C(CC(N)=O)NC1=O (centres unmarked) [compound 173, Cyclo(Asn-Asn)] | Yes | 255 |  |  | Significant difference (p < 0.05) vs control group, plasma active GLP-1 level (C57/BL6J mice; Table 15, Experiment 10): No; Plasma active GLP-1 level (relative value to control group as 100), average value (C57/BL6J mice; Table 15, Experiment 10): 123 |
| NC(=O)CC1NC(=O)CNC1=O (centres unmarked) [compound 215, cyclo-asparaginyl-glycine] | Yes | 611 | Yes | 305 |  |
| NCCCCC1NC(=O)C(Cc2ccccc2)NC1=O (centres unmarked) [compound 63, cyclo-lysyl-phenylalanine] |  |  |  |  | Significant difference (p < 0.05) vs control group, plasma active GLP-1 level (C57/BL6J mice; Table 6, Experiment 1): Yes; Plasma active GLP-1 level (relative value to control group as 100), average value (C57/BL6J mice; Table 6, Experiment 1): 206; Significant difference (p < 0.05) vs control group, amount of active GLP-1 secreted (NCI-H716 cells; Table 2, Experiment 2): Yes; Amount of active GLP-1 secreted (relative value to control group as 100), average value (NCI-H716 cells; Table 2, Experiment 2): 220 |
| CC[C@H](C)[C@@H]1NC(=O)[C@H](CCC(N)=O)NC1=O [compound 182, cyclo-glutaminyl-isoleucine] | Yes | 445 | Yes | 188 |  |
| CC(O)C1NC(=O)C(C(C)O)NC1=O (centres unmarked) [compound 164, cyclo-threonyl-threonine] |  |  |  |  | Significant difference (p < 0.05) vs control group, plasma active GLP-1 level (C57/BL6J mice; Table 15, Experiment 10): Yes; Plasma active GLP-1 level (relative value to control group as 100), average value (C57/BL6J mice; Table 15, Experiment 10): 282; Significant difference (p < 0.05) vs control group, amount of active GLP-1 secreted (NCI-H716 cells; Table 3, Experiment 3): Yes; Amount of active GLP-1 secreted (relative value to control group as 100), average value (NCI-H716 cells; Table 3, Experiment 3): 162 |
| O=C(O)C[C@@H]1NC(=O)[C@H](CO)NC1=O [compound 193, cyclo-aspartyl-serine] | Yes | 509 | Yes | 266 |  |
| NC(N)=NCCC[C@@H]1NC(=O)[C@@H]2CCCN2C1=O [compound 209, cyclo-arginyl-proline] | Yes | 441 | Yes | 315 |  |
| CC1NC(=O)C(CO)NC1=O (centres unmarked) [compound 25, cyclo-alanyl-serine] |  |  |  |  | Significant difference (p < 0.05) vs control group, plasma active GLP-1 level (C57/BL6J mice; Table 6, Experiment 1): Yes; Plasma active GLP-1 level (relative value to control group as 100), average value (C57/BL6J mice; Table 6, Experiment 1): 158; Significant difference (p < 0.05) vs control group, amount of active GLP-1 secreted (NCI-H716 cells; Table 1, Experiment 1): Yes; Amount of active GLP-1 secreted (relative value to control group as 100), average value (NCI-H716 cells; Table 1, Experiment 1): 257 |
| C[C@@H]1NC(=O)[C@H](Cc2cnc[nH]2)NC1=O [compound 34, Cyclo(Ala-His)] |  |  |  |  | Significant difference (p < 0.05) vs control group, plasma active GLP-1 level (C57/BL6J mice; Table 6, Experiment 1): No; Plasma active GLP-1 level (relative value to control group as 100), average value (C57/BL6J mice; Table 6, Experiment 1): 100; Significant difference (p < 0.05) vs control group, amount of active GLP-1 secreted (NCI-H716 cells; Table 1, Experiment 1): No; Amount of active GLP-1 secreted (relative value to control group as 100), average value (NCI-H716 cells; Table 1, Experiment 1): 211 |
| CC(C)[C@@H]1NC(=O)[C@H](CCCN=C(N)N)NC1=O [compound 194, cyclo-arginyl-valine] | Yes | 498 | Yes | 237 |  |
| NC(=O)CC[C@@H]1NC(=O)[C@H](Cc2cnc[nH]2)NC1=O [compound 191, cyclo-glutaminyl-histidine] | Yes | 743 | Yes | 247 |  |
| N=C(N)NCCC[C@@H]1NC(=O)[C@H](CCCNC(=N)N)NC1=O [compound 212, cyclo-arginyl-arginine] | Yes | 1050 |  |  |  |
| O=C1N[C@@H](Cc2ccccc2)C(=O)N[C@H]1CO [compound 7, Cyclo(Phe-Ser)] |  |  |  |  | Significant difference (p < 0.05) vs control group, amount of active GLP-1 secreted (NCI-H716 cells; Table 1, Experiment 1): No; Amount of active GLP-1 secreted (relative value to control group as 100), average value (NCI-H716 cells; Table 1, Experiment 1): 106 |
